In patent US20250367305A1, “ALBUMIN NANOCOMPOSITE COMPRISING PHYTOCHEMICAL AND COMPOSITION FOR IMPROVING MUSCLE DISEASE CONTAINING SAME” (SEOUL NATIONAL UNIVERSITY R&DB FOUNDATION, priority 2023, published 2025):

How the values were obtained:
[1] = tested on: Mouse muscle cells (C2C12); test: Muscle atrophy induced by cancer cell-conditioned medium (CCM, CT26): myotube differentiation by immunofluorescence; type: cell-based; details: CCM-induced atrophied cells, 2.5 μM, 48 hours
Method: First, mouse muscle cells (C2C12) were cultured, and the culture medium was replaced with cancer cell-conditioned medium (CCM) from cultured CT26 (colon carcinoma) cells to induce muscle atrophy.
(§1) Mouse muscle cells (C2C12) were first cultured, and then their medium was replaced with cancer cell-conditioned medium (CCM) from cultured mouse colon carcinoma cells (CT26) to induce muscle atrophy. The cells were treated with either 2.5 μM of ursolic acid alone or ursolic acid-glycated albumin and incubated for 48 hours. Thereafter, fluorescence expression was confirmed to evaluate the level of myotube differentiation.
as §1, with “and” for “and then”, “soyasapogenol B” for “ursolic acid”, “soyasapogenol B-glycated” for “ursolic acid-glycated”
as §1, with “and” for “and then”, “citrusinol” for “ursolic acid”, “citrusinol-glycated” for “ursolic acid-glycated”

[2] = tested on: RAW cells polarized from M0 to M1; test: M1-type macrophage inhibition: cell morphology and intracellular/extracellular ROS levels; type: cell-based
[3] = tested on: Mouse muscle cells (C2C12); test: Cytotoxicity by DAPI nuclei count; type: cell-based; details: apigenin 2.5 and 5 μM, 96 hours
Method: After 96 hours of incubation, cell nuclei were stained with DAPI.

[4] = tested on: MHC, IGF-IR, p-AKT, p-Foxo3a, MuRF1 in C2C12; test: Western blot of muscle generation and degradation proteins in CCM-treated cells; type: cell-based, mouse
Text: Meanwhile, to evaluate the effect of the apigenin-glycated albumin composite on the expression of genes related to muscle generation and degradation, proteins were extracted from the cells of each experimental group and analyzed via western blotting.

[5] = tested on: Mouse muscle cells (C2C12); test: Muscle cell atrophy induced by cisplatin: myotube differentiation by immunofluorescence; type: cell-based; details: 40 μM cisplatin, 2.5 and 5 μM, 48 hours
[6] = tested on: MHC, MyoG (myogenin) in C2C12; test: Western blot of MHC and MyoG in cisplatin-treated cells; type: cell-based, mouse; details: reduced by cisplatin treatment
Method: Additionally, proteins were extracted from each experimental cell group, and western blot analysis was conducted to examine the expression level of MyoG (myogenin), which induces muscle generation.

Which “MHC expression (immunofluorescence)” value [1] does the source give for `CC1(C)C=Cc2c(cc(O)c3c(=O)c(O)c(-c4ccc(O)cc4)oc23)O1` [citrusinol] here?
Its value is “increased”.

For `C[C@H]1[C@H](C)CC[C@]2(C(=O)O)CC[C@]3(C)C(=CC[C@@H]4[C@@]5(C)CC[C@H](O)C(C)(C)[C@@H]5CC[C@]43C)[C@H]12` [ursolic acid], which “MHC expression (immunofluorescence)” value [1] is on record?
Its value is “increased”.

How did the “MHC expression (immunofluorescence)” value [1] turn out when `CC1(C)C[C@@H](O)[C@]2(C)CC[C@]3(C)C(=CC[C@@H]4[C@@]5(C)CC[C@H](O)[C@](C)(CO)[C@@H]5CC[C@]43C)[C@@H]2C1` [soyasapogenol B] was run?
Its value is “increased”.

What does the source list for `O=c1cc(-c2ccc(O)cc2)oc2cc(O)cc(O)c12` [apigenin]?
RAW cell morphology ([2]; RAW cells polarized from M0 to M1, FIG. 7a): maintained in the M0 type; ROS levels (intracellular/extracellular) ([2]; RAW cells polarized from M0 to M1, FIG. 7b): ROS reduction was observed; cytotoxicity (number of DAPI-stained nuclei) [3]: neither the apigenin alone nor the apigenin-glycated albumin composite exhibited cytotoxicity; expression of IGF-IR ([4]; CCM treatment): increased expression; expression of MHC ([4]; CCM treatment): increased expression; expression of p-AKT ([4]; CCM treatment): increased expression; expression of p-Foxo3a ([4]; CCM treatment): increased expression; MuRF1 expression ([4]; elevated by CCM treatment): reduced; atrophy caused by cisplatin [5]: inhibited; MHC expression [6]: increased; MyoG expression [6]: increased
